Where two headings read alike, the source gives them in different places.
Tests used:
Assay in all cases: Glasshouse assay for herbicidal activity (pre- and post-emergence), percentage phytotoxicity
Assay type in all cases: in vivo
[1] = system: Alopecurus myosuroides (ALOMY); conditions: Alopecurus myosuroides, Rate 250 g/ha, 100%=total damage, 0%=no damage
Summary of the method: (§1)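 Visual phytotoxicity score, 0% = undamaged to 100% = total kill, read 20 days after treatment for PRE and 15 days for POST. Pots of standard soil; treatment at day 1 (PRE) or roughly day 12 (POST). Glasshouse: 16 h photoperiod, 65% RH, 24/18 or 20/16 °C by climate type.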

Avena fatua (AVEFA) = conditions: Avena fatua, Rate 250 g/ha, 100%=total damage, 0%=no damage
Summary of the method: as §1

[2] = system: Echinochloa crus-galli (ECHCG); conditions: Echinochloa crus-galli, Rate 250 g/ha, 100%=total damage, 0%=no damage
Summary of the method: as §1

Lolium perenne (LOLPE) = conditions: Lolium perenne, Rate 250 g/ha, 100%=total damage, 0%=no damage
Summary of the method: as §1

[3] = post-emergence, 360 h, post-emergence, visual assessment 15 DAA, read-out: Post-emergence herbicidal activity (percentage phytotoxicity) ALOMY POST
[4] = pre-emergence, 480 h, pre-emergence, visual assessment 20 DAA, read-out: Pre-emergence herbicidal activity (percentage phytotoxicity) ALOMY PRE
[5] = post-emergence, 360 h, post-emergence, visual assessment 15 DAA, read-out: Post-emergence herbicidal activity (percentage phytotoxicity) AVEFA POST
[6] = pre-emergence, 480 h, pre-emergence, visual assessment 20 DAA, read-out: Pre-emergence herbicidal activity (percentage phytotoxicity) AVEFA PRE
[7] = post-emergence, 360 h, post-emergence, visual assessment 15 DAA, read-out: Post-emergence herbicidal activity (percentage phytotoxicity) ECHCG POST
[8] = pre-emergence, 480 h, pre-emergence, visual assessment 20 DAA, read-out: Pre-emergence herbicidal activity (percentage phytotoxicity) ECHCG PRE
[9] = post-emergence, 360 h, post-emergence, visual assessment 15 DAA, read-out: Post-emergence herbicidal activity (percentage phytotoxicity) LOLPE POST
[10] = pre-emergence, 480 h, pre-emergence, visual assessment 20 DAA, read-out: Pre-emergence herbicidal activity (percentage phytotoxicity) LOLPE PRE

| Structure (SMILES) | pest or weed control at 250 g/ha [1, 3] | pest or weed control at 250 g/ha [1, 4] | pest or weed control at 250 g/ha (Avena fatua (AVEFA); [5]) | pest or weed control at 250 g/ha (Avena fatua (AVEFA); [6]) | pest or weed control at 250 g/ha [2, 7] | pest or weed control at 250 g/ha [2, 8] | pest or weed control at 250 g/ha (Lolium perenne (LOLPE); [9]) | pest or weed control at 250 g/ha (Lolium perenne (LOLPE); [10]) |
| --- | --- | --- | --- | --- | --- | --- | --- | --- |
| C=C(C)CNC(=O)CC1CC(=O)C(c2c(C)cc(-c3ccc(Cl)cn3)cc2C)C1=O (stereo not drawn) [Compound B361] | 100% | 90% | 100% | 100% | 100% | 100% | 90% | 90% |
| Cc1cc(-c2ccc(Cl)cn2)cc(C)c1C1C(=O)CC(CC(=O)NCC2CC2)C1=O (stereo not drawn) [Compound B362] | 90% | 100% | 100% | 100% | 100% | 100% | 90% | 100% |
| C#CC(C)(C)NC(=O)CC1CC(=O)C(c2c(C)cc(-c3ccc(Cl)cn3)cc2C)C1=O (stereo not drawn) [Compound B363] | 90% | 100% | 100% | 90% | 100% | 100% | 90% | 100% |
| COCC(C)(C)NC(=O)CC1CC(=O)C(c2c(C)cc(-c3ccc(Cl)cn3)cc2C)C1=O (stereo not drawn) [Compound B364] | 100% | 100% | 90% | 80% | 90% | 90% | 90% | 90% |
| C=CC(C)NC(=O)CC1CC(=O)C(c2c(C)cc(-c3ccc(Cl)cn3)cc2C)C1=O (stereo not drawn) [Compound B365] | 90% | 100% | 90% | 90% | 100% | 100% | 90% | 100% |
| COCC(C)NC(=O)CC1CC(=O)C(c2c(C)cc(-c3ccc(Cl)cn3)cc2C)C1=O (stereo not drawn) [Compound B366] | 90% | 100% | 100% | 100% | 100% | 100% | 90% | 100% |
| CCN(C)C(=O)CC1CC(=O)C(c2c(C)cc(-c3ccc(Cl)cn3)cc2C)C1=O (stereo not drawn) [Compound B367] | 90% | 90% | 100% | 100% | 100% | 100% | 100% | 100% |
| Cc1cc(-c2ccc(Cl)cn2)cc(C)c1C1C(=O)CC(CC(=O)N(C)C(C)(C)C)C1=O (stereo not drawn) [Compound B368] | 90% | 90% | 100% | 90% | 100% | 100% | 100% | 100% |
| C#CCN(C)C(=O)CC1CC(=O)C(c2c(C)cc(-c3ccc(Cl)cn3)cc2C)C1=O (stereo not drawn) [Compound B369] | 90% | 100% | 100% | 100% | 100% | 100% | 90% | 100% |
| C=CCNC(=O)CC1CC(=O)C(c2c(C)cc(-c3ccc(Cl)cn3)cc2C)C1=O (stereo not drawn) [Compound B370] | 90% | 100% | 100% | 100% | 100% | 100% | 100% | 100% |
| Cc1cc(-c2ccc(Cl)cn2)cc(C)c1C1C(=O)CC(CC(=O)N(C)C(C)C)C1=O (stereo not drawn) [Compound B371] | 100% | 90% | 100% | 90% | 100% | 100% | 100% | 100% |
| Cc1cc(-c2ccc(Cl)cn2)cc(C)c1C1C(=O)CC(CC(=O)NC/C=C/Cl)C1=O (stereo not drawn) [Compound B372] | 90% | 90% | 100% | 100% | 100% | 100% | 90% | 100% |
| Cc1cc(-c2ccc(Cl)cn2)cc(C)c1C1C(=O)CC(CC(=O)NCc2cccs2)C1=O (stereo not drawn) [Compound B373] | 80% | 70% | 100% | 80% | 100% | 100% | 80% | 100% |
| Cc1cc(-c2ccc(Cl)cn2)cc(C)c1C1C(=O)CC(CC(=O)NCc2cccc(Cl)c2)C1=O (stereo not drawn) [Compound B374] | 90% | 70% | 100% | 90% | 100% | 90% | 90% | 90% |
| Cc1ccc(CNC(=O)CC2CC(=O)C(c3c(C)cc(-c4ccc(Cl)cn4)cc3C)C2=O)cc1 (stereo not drawn) [Compound B375] | 40% | 60% | 70% | 70% | 100% | 90% | 80% | 80% |
| C=Cc1cc(-c2ccc(Cl)cn2)cc(C)c1C1C(=O)CC(CC(=O)NC(C)(C)C)C1=O (stereo not drawn) [Compound B376] | 90% | 30% | 90% | 80% | 100% | 60% | 100% | 60% |
| Cc1cc(-c2ccc(F)cc2)cc(C)c1C1C(=O)CC(CC(=O)NC(C)(C)C#N)C1=O (stereo not drawn) [Compound B377] | 90% | 90% | 100% | 90% | 90% | 100% | 30% | 80% |
| Cc1cc(-c2ccc(Cl)cc2)cc(C)c1C1C(=O)CC(CC(=O)NC(C)(C)C#N)C1=O (stereo not drawn) [Compound B378] | 80% | 70% | 100% | 90% | 100% | 90% | 70% | 80% |
| CC#Cc1cc(C)c(C2C(=O)CC(CC(=O)NC(C)(C)C#N)C2=O)c(C)c1 (stereo not drawn) [Compound B379] | 90% | 90% | 90% | 70% | 90% | 70% | 60% | 70% |
| COc1ccc(CNC(=O)CC2CC(=O)C(c3c(C)cc(-c4ccc(Cl)cn4)cc3C)C2=O)cc1 (stereo not drawn) [Compound B380] | 70% | 70% | 90% | 80% | 100% | 90% | 90% | 80% |
| C#Cc1cc(-c2ncc(F)cc2F)cc(C)c1C1C(=O)CC(CC(=O)NC(C)(C)C)C1=O (stereo not drawn) [Compound B381, N-tert-butyl-2-[3-[4-(3,5-difluoro-2-pyridyl)-2-ethynyl-6-methyl-phenyl]-2,4-dioxo-cyclopentyl]acetamide] | 100% | 70% | 100% | 70% | 100% | 70% | 100% | 90% |
